# Assay results published in paper PMC8005090, “Bioanalytical Method Development and Validation Study of Neuroprotective Extract of Kashmiri Saffron Using Ultra-Fast Liquid Chromatography-Tandem Mass Spectrometry (UFLC-MS/MS): In Vivo Pharmacokinetics of Apocarotenoids and Carotenoids” (Molecules, 2021).
# Where two headings read alike, the source gives them in different places.
# Columns and labels:
# [1] = Oral pharmacokinetics of CSE constituents in rat plasma (UFLC-MS/MS); assay type: in vivo, Sprague–Dawley rats; details: single oral CSE 40 mg/kg, n = 6, mean ± SEM
# Description: The PK parameters were calculated by non-compartmental analysis. The PK parameters, such as maximum plasma concentration (Cmax) and the time to reach the maximum plasma concentration (Tmax), were derived directly from the experimental data. The trapezoidal equation calculated the areas under the plasma concentration-time curves from 0 to the time of the last quantifiable concentration (AUC0−t). The AUC was extrapolated to infinity AUC0-∞ using Ct/Kel, where Ct is the last measured MET concentration. Kel is the elimination rate constant determined from the terminal slope of the log concentration-time plot. The Kel was obtained from the linear regression curve slope by fitting the terminal concentrations’ natural logarithms versus time. The terminal elimination half-life (t1/2) was calculated by 0.693/Kel. The clearance (CL) was calculated as the quotient of the dose (D) and AUC0−∞. All values were expressed as mean ± SEM.
# Male Sprague–Dawley rats (250–300 g) were purchased from Crystal Biological Solution, Pune, Maharashtra, India. The animal studies were sanctioned by the Animal Ethics Committee of Crystal Biological Solution, Pune. It was carried out following the Animal Ethics Procedures and Guidelines of Control and Supervision of Experiments on Animals (CPCSEA) committee requirements. Animals were housed 3–4 per cage in rooms with constant temperature (25 ± 2 °C), humidity (50 ± 20%), and 12 h dark-light cycle. All animals in the oral group fasted overnight before the dosing, and food was provided 8 h post-dose, and water was ad libitum. The investigational CSE was fed orally to an individual rat as per its body weight.
# The UFLC-MS/MS analysis was performed on a Shimadzu UFLC system (Kyoto, Japan) consisting of a DGU-20A5R degasser, LC-30AD pump, SIL-30AC autosampler, CTO-20AC column oven. The chromatographic separation was carried out in a single analytical run divided into loading and eluting phases by alternating the electronic valve. At the loading phase (−1–0 min), the auto-sampler was responsible for injecting 50 µL of the sample. The LC-30AD pump was responsible for delivering water containing 0.1% formic acid to the pre-column (Phenomenex Security Guard ULTRA with C8 Cartridge) at 0.8 mL/min to remove protein and retain analytes. At the eluting phase (0–12 min), the retained components were flushed from the pre-column into the analytical column (Dr. Maisch GmbH Reprosil Gold XBD C8, 50 mm × 4.6 mm, i.d., 1.8 µm) eluting as per time programmed gradient. The flow rate of the mobile phase was 0.8 mL/min. The mobile phase consists of a mixture of water containing 0.1% formic acid (%v/v) (A) and 100% acetonitrile (B). The gradient elution program was carried out for chromatographic separation: 0.01–1.91 min, 20% B; 1.91–5.91 min, 2090% B; 5.91–6.91 min, 90–80% B; 6.91–8.24 min, 80–20% B; and 8.24–12 min, 20% B. The column oven temperature was set at 30 °C. The MS/MS analysis was carried out on an LCMS-8045 triple-quadrupole mass spectrometer (Shimadzu, Kyoto, Japan) equipped with positive and negative electrospray ionization (ESI) interfaces using the MRM mode. The compound and source dependent parameters were defined as follows: nitrogen was used as nebulizing and drying gas; argon was used as the collision gas. Quadruple voltage was set at Q1 RF gain: 4998 Q1 RF offset 4990 and Q1 post-rod bias: −5.0 V CID CELL exit lens: −4.0 V, interface: ESI, interface temperature: 350 °C, desolvation line (DL) temperature: 250 °C, nebulizing gas flow: 2.50 L/min, heating gas flow: 10.00 L/min heat block: 300 °C; drying gas flow: 10.00 L/min.
# An aliquot of 45 µL of rat plasma was spiked with each 5 µL of IS1 and IS2, and 200 µL of methanol was added, vortexed for 1–2 min, then centrifuged for 10 min at 2000 RPM. Collect the supernatant into HPLC vials and injected it into the UFLC-MS/MS system for analysis. […]
# [2] = Stability of analytes in rat plasma (autosampler, room temperature, freeze-thaw); assay type: in vitro ADME; details: for analyte stability in plasma: LQC and HQC, processed plasma samples, stable under restricted storage conditions; for Room Temperature Stability (%, mean ± SD) / Autosampler Stability (%, mean ± SD) / Freeze-Thaw Stability (%, mean ± SD): rat plasma, n = 6; for Room Temperature Stability (%, mean ± SD): ambient temperature 4 h; for Autosampler Stability (%, mean ± SD): autosampler 8 °C for 24 h; for Freeze-Thaw Stability (%, mean ± SD): three freeze-thaw cycles at −20 ± 4 °C
# Description: The stability was performed at different sets of working and storage conditions. […] The stability conditions of the method studied were at ambient temperature for 4 h (room-temperature stability), in the autosampler at 8 °C conditions for 24 h (autosampler stability), and with three freeze-thaw cycles at −20 ± 4 °C condition (freeze-thaw stability). The samples were prudent to be stable if the measured concentration was within ±15% of the nominal concentration.
# mice = test system: mice; parameters: method as in PMID 28471166, PMID 31459089, PMID 33404280; details: by inducing autophagy mediated by AMPK pathway activation; cited from earlier work
# [3] = male, Sprague-Dawley, rat, plasma, po, 40 mg/kg
# [4] = male, Sprague-Dawley, rat, plasma, po, 40 mg/kg, read-out: Tmax
Structure (SMILES),"half-life [1, 3] [min]","Tmax [1, 4] [h]","AUC(0-inf) ([1]; male, Sprague-Dawley) [ng·h/mL]","AUC(0-t) ([1]; male, Sprague-Dawley) [ng·h/mL]","Cmax ([1]; male, Sprague-Dawley) [ng/mL]",CL [1],Vd [1] [L/kg],analyte stability in plasma [2],Tmax [1] [h],"Room Temperature Stability (%, mean ± SD) ([2]; nominal 30.00 ng/mL (LQC)) [ng/mL]","Autosampler Stability (%, mean ± SD) ([2]; nominal 30.00 ng/mL (LQC)) [ng/mL]","Freeze-Thaw Stability (%, mean ± SD) ([2]; nominal 30.00 ng/mL (LQC)) [ng/mL]","Room Temperature Stability (%, mean ± SD) ([2]; nominal 2400.00 ng/mL (HQC)) [ng/mL]","Autosampler Stability (%, mean ± SD) ([2]; nominal 2400.00 ng/mL (HQC)) [ng/mL]","Freeze-Thaw Stability (%, mean ± SD) ([2]; nominal 2400.00 ng/mL (HQC)) [ng/mL]",memory function (mice)
"CC(=C/C=C/C=C(C)/C=C/C=C(\C)C(=O)OC1OC(COC2OC(CO)C(O)C(O)C2O)C(O)C(O)C1O)/C=C/C=C(\C)C(=O)OC1OC(COC2OC(CO)C(O)C(O)C2O)C(O)C(O)C1O (stereo not drawn) [C4C, cis-4-GG-crocin]",94.2 ± 94.2,3.25 ± 1.05,407 ± 187,396 ± 113,86.1 ± 15.7,326.37 ± 445.89 mL/h/kg,4.29 ± 1.94,,,,,,,,,
"CC(/C=C/C=C(\C)C(=O)O)=C\C=C\C=C(C)\C=C\C=C(/C)C(=O)O [TCT, trans crocetin]",> 660,6.83 ± 1.68,30700,23600,2080 ± 374,,,stable,6.84 ± 1.69,,,,,,,improved memory function
"CC1=C(C=O)C(C)(C)C[C@H](O[C@@H]2O[C@H](CO)[C@@H](O)[C@H](O)[C@H]2O)C1 [PIC, picrocrocin]",47.6 ± 4.68,0.67,3820 ± 257,3690 ± 274,2720 ± 231,1935.88 ± 123.45 mL/h/kg,2.258 ± 0.3168,stable,0.792 ± 0.10,30.40 ± 0.92,29.52 ± 1.26,29.98 ± 1.66,2406.19 ± 94.01,2463.69 ± 113.42,2498.53 ± 111.53,
"CC1=C(C=O)C(C)(C)CC=C1 [SAF, safranal]",,,,,,,,stable,,,,,,,,

# More lines, main results first:
"half-life [1, 3] [min]","Tmax [1, 4] [h]","AUC(0-inf) ([1]; male, Sprague-Dawley) [ng·h/mL]","AUC(0-t) ([1]; male, Sprague-Dawley) [ng·h/mL]","Cmax ([1]; male, Sprague-Dawley) [ng/mL]",CL [1],Vd [1] [L/kg],analyte stability in plasma [2],Tmax [1] [h],"Room Temperature Stability (%, mean ± SD) ([2]; nominal 30.00 ng/mL (LQC)) [ng/mL]","Autosampler Stability (%, mean ± SD) ([2]; nominal 30.00 ng/mL (LQC)) [ng/mL]","Freeze-Thaw Stability (%, mean ± SD) ([2]; nominal 30.00 ng/mL (LQC)) [ng/mL]","Room Temperature Stability (%, mean ± SD) ([2]; nominal 2400.00 ng/mL (HQC)) [ng/mL]","Autosampler Stability (%, mean ± SD) ([2]; nominal 2400.00 ng/mL (HQC)) [ng/mL]","Freeze-Thaw Stability (%, mean ± SD) ([2]; nominal 2400.00 ng/mL (HQC)) [ng/mL]",Structure (SMILES),memory function (mice)
202 ± 60,3.5 ± 0.57,370 ± 75.6,277 ± 67.7,49.3 ± 11.2,"19,568.35 ± 4835.41 mL/h/kg",69.250 ± 16.150,,,,,,,,,"CC(/C=C/C=C(\C)C(=O)OC1OC(COC2OC(CO)C(O)C(O)C2O)C(O)C(O)C1O)=C\C=C\C=C(C)\C=C\C=C(/C)C(=O)OC1OC(COC2OC(CO)C(O)C(O)C2O)C(O)C(O)C1O (stereo not drawn) [T4C, trans-4-GG-crocin]",
276 ± 164,3.5 ± 1.09,55.5 ± 31.2,20.4 ± 9.64,7.59 ± 4.71,"114,958.33 ± 71,000.46 mL/h/kg",325.573 ± 13.099,,,,,,,,,"CC(/C=C/C=C(\C)C(=O)OC1OC(CO)C(O)C(O)C1O)=C\C=C\C=C(C)\C=C\C=C(/C)C(=O)OC1OC(COC2OC(CO)C(O)C(O)C2O)C(O)C(O)C1O (stereo not drawn) [T3C, trans-3-Gg-crocin]",
345 ± 43.8,4.34 ± 0.51,1680 ± 238,1530 ± 197,160 ± 15.2,234.77 ± 31.12 mL/h/kg,2.006 ± 0.457,,,,,,,,,"CC(/C=C/C=C(\C)C(=O)OC1OC(CO)C(O)C(O)C1O)=C\C=C\C=C(C)\C=C\C=C(/C)C(=O)OC1OC(CO)C(O)C(O)C1O (stereo not drawn) [T2C, trans-2-gg-crocin]",
